Source: patent publication US11339128B2 (Firmenich Incorporated, priority 2014, dated 2022)
Counter-ions that a name gives are not always drawn.

Target: T1, T1R2/T1R3 taste receptor (Homo sapiens, UniProt Q7RTX0+Q8TE23)
T1 sequence (Q8TE23 20-839): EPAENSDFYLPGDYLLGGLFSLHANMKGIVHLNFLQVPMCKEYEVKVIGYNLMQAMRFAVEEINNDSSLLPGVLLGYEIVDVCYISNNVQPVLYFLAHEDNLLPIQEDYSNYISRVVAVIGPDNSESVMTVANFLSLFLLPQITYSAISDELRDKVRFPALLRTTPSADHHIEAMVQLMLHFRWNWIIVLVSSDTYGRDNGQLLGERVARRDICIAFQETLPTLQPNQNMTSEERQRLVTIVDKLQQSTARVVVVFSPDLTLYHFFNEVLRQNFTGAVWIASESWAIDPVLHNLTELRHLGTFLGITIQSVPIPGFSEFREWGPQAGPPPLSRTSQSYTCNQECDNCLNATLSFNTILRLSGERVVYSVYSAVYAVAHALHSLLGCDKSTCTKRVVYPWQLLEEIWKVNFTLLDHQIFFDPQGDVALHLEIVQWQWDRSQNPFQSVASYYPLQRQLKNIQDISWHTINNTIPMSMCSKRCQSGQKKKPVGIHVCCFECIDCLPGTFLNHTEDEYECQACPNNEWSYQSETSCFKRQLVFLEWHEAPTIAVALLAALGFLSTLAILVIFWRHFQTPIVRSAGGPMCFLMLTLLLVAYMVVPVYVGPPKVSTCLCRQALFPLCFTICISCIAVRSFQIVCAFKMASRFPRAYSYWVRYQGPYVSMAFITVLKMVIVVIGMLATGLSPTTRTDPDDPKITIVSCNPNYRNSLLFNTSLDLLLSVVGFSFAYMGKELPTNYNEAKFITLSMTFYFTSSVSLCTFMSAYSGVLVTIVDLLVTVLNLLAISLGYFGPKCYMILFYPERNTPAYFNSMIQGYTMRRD
T1 sequence (Q7RTX0 21-852): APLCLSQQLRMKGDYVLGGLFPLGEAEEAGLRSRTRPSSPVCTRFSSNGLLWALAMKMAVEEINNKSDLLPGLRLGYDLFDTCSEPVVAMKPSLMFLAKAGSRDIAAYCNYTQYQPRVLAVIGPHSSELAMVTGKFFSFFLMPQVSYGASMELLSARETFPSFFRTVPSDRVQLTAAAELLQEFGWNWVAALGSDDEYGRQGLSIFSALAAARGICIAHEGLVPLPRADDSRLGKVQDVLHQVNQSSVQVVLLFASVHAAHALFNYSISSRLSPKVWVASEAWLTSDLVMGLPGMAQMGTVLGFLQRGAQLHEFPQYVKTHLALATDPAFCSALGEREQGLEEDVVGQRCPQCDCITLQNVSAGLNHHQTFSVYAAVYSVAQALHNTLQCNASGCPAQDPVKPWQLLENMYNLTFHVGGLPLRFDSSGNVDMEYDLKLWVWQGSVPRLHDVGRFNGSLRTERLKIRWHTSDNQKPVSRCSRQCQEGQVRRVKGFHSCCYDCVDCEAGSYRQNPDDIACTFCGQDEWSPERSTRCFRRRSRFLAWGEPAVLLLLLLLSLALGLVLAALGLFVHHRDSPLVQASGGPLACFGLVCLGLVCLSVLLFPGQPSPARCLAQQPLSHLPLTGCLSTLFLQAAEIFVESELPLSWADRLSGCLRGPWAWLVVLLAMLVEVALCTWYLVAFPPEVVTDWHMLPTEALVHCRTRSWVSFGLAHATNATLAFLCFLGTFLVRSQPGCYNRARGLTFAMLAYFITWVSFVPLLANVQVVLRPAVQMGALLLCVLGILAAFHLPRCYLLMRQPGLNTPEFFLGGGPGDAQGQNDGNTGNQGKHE
Assay: Receptor-based assay: sweetener EC50 enhancement ratio with and without test compound
Format: cell-based
Conditions: for Sucrose Enhancement EC50 Ratio: sweetener sucrose; for Fructose Enhancement EC50 Ratio: sweetener fructose; for Sucralose Enhancement EC50 Ratio: sweetener sucralose
Method in brief: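 Sweetener (sucrose, sucralose, fructose) EC50 measured alone and with 1, 3, 10 or 50 μM test compound. Enhancement ratio = EC50 without/with compound; A = >1 to <10, B = 10–20, C = >20.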

SMILES	Sucrose Enhancement EC50 Ratio (1 μM test compound)	Sucrose Enhancement EC50 Ratio (3 μM test compound)	Fructose Enhancement EC50 Ratio (10 μM test compound)	Sucralose Enhancement EC50 Ratio (10 μM test compound)	Sucrose Enhancement EC50 Ratio (10 μM test compound)	Fructose Enhancement EC50 Ratio (50 μM test compound)	Sucralose Enhancement EC50 Ratio (3 μM test compound)
CNC(C)(C)C(=O)N[C@H]1CC[C@H](Oc2cccc3nc(C)c(C(=O)O)c(N)c23)CC1 [Compound 501]	A (an enhancement ratio of greater than 1 and less than 10)	A (an enhancement ratio of greater than 1 and less than 10)	A (an enhancement ratio of greater than 1 and less than 10)	B (an enhancement ratio from 10 to 20)	A (an enhancement ratio of greater than 1 and less than 10)	A (an enhancement ratio of greater than 1 and less than 10)	
CN[C@@H](CO)C(=O)N[C@H]1CC[C@H](Oc2cccc3nc(C)c(C(=O)O)c(N)c23)CC1 [Compound 502]	A (an enhancement ratio of greater than 1 and less than 10)	A (an enhancement ratio of greater than 1 and less than 10)	A (an enhancement ratio of greater than 1 and less than 10)	A (an enhancement ratio of greater than 1 and less than 10)	A (an enhancement ratio of greater than 1 and less than 10)	A (an enhancement ratio of greater than 1 and less than 10)	
CN[C@H](C(=O)N[C@H]1CC[C@H](Oc2cccc3nc(C)c(C(=O)O)c(N)c23)CC1)C(C)C [Compound 503]	A (an enhancement ratio of greater than 1 and less than 10)	A (an enhancement ratio of greater than 1 and less than 10)	A (an enhancement ratio of greater than 1 and less than 10)	B (an enhancement ratio from 10 to 20)	A (an enhancement ratio of greater than 1 and less than 10)	A (an enhancement ratio of greater than 1 and less than 10)	
Cc1nc2cccc(O[C@H]3CC[C@H](NC(=O)[C@@H]4CCCN4)CC3)c2c(N)c1C(=O)O [Compound 504]	A (an enhancement ratio of greater than 1 and less than 10)	A (an enhancement ratio of greater than 1 and less than 10)					
Cc1nc2cccc(O[C@H]3CC[C@H](NC(=O)CN4CCOCC4)CC3)c2c(N)c1C(=O)O.Cl [Compound 600, 4-Amino-2-methyl-5-((trans-4-(2-morpholinoacetamido)cyclohexyl)oxy) quinolone-3-carboxylic acid (HCl)]	B (an enhancement ratio from 10 to 20)	C (an enhancement ratio greater than 20)					
COCC(=O)NC[C@H]1CC[C@H](Oc2cccc3nc(C)c(C(=O)O)c(N)c23)CC1 [Compound 601]	A (an enhancement ratio of greater than 1 and less than 10)	C (an enhancement ratio greater than 20)	A (an enhancement ratio of greater than 1 and less than 10)		C (an enhancement ratio greater than 20)		
Cc1nc2cccc(O[C@H]3CC[C@H](CN)CC3)c2c(N)c1C(=O)O.Cl [Compound 602]	A (an enhancement ratio of greater than 1 and less than 10)	A (an enhancement ratio of greater than 1 and less than 10)	A (an enhancement ratio of greater than 1 and less than 10)		C (an enhancement ratio greater than 20)		
CCOCC(=O)NC[C@H]1CC[C@H](Oc2cccc3nc(C)c(C(=O)O)c(N)c23)CC1 [Compound 603]	A (an enhancement ratio of greater than 1 and less than 10)	C (an enhancement ratio greater than 20)		C (an enhancement ratio greater than 20)	C (an enhancement ratio greater than 20)		
Cc1nc2cccc(O[C@H]3CC[C@H](Nc4ccccn4)CC3)c2c(N)c1C(=O)O [Compound 701, 4-Amino-2-methyl-5-((trans-4-(pyridin-2-ylamino)cyclohexyl)oxy) quinoline-3-carboxylic acid]	A (an enhancement ratio of greater than 1 and less than 10)	B (an enhancement ratio from 10 to 20)		C (an enhancement ratio greater than 20)	B (an enhancement ratio from 10 to 20)		C (an enhancement ratio greater than 20)
Cc1cc(C)nc(N[C@H]2CC[C@H](Oc3cccc4nc(C)c(C(=O)O)c(N)c34)CC2)n1 [Compound 702, 4-Amino-5-((trans-4-((4,6-dimethylpyrimidin-2-yl)amino)cyclohexyl)oxy)-2-methylquinoline-3-carboxylic (HCl)]	A (an enhancement ratio of greater than 1 and less than 10)	A (an enhancement ratio of greater than 1 and less than 10)		B (an enhancement ratio from 10 to 20)	A (an enhancement ratio of greater than 1 and less than 10)		A (an enhancement ratio of greater than 1 and less than 10)
COc1cnc(N[C@H]2CC[C@H](Oc3cccc4nc(C)c(C(=O)O)c(N)c34)CC2)nc1 [Compound 703]	A (an enhancement ratio of greater than 1 and less than 10)	A (an enhancement ratio of greater than 1 and less than 10)	A (an enhancement ratio of greater than 1 and less than 10)	B (an enhancement ratio from 10 to 20)	B (an enhancement ratio from 10 to 20)		B (an enhancement ratio from 10 to 20)
Cc1nc2cccc(O[C@H]3CC[C@H](Nc4ncc(F)cn4)CC3)c2c(N)c1C(=O)O [Compound 704]	A (an enhancement ratio of greater than 1 and less than 10)	A (an enhancement ratio of greater than 1 and less than 10)	A (an enhancement ratio of greater than 1 and less than 10)	B (an enhancement ratio from 10 to 20)	B (an enhancement ratio from 10 to 20)	A (an enhancement ratio of greater than 1 and less than 10)	B (an enhancement ratio from 10 to 20)
